Experimental data taken from ChEMBL document CHEMBL1201862, “PubChem BioAssay data set” (2004).
Active and inactive are the calls of the source.

Assays:
[1] = tested on: BJ; assay: cytotoxicity toward Ras-transformed BJeLR fibroblasts, dose response, cell-based, alamar blue fluorescence, cherrypicked samples (AID 2631); type: functional; details: Homo sapiens;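 also: confirmatory dose-response assay in RAS-dependent BJ fibroblasts engineered with TERT, LT and ST, with cytotoxicity read by fluorescence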
[2] = tested on: BJ; assay: cytotoxicity toward BJ-TERT-LT-ST fibroblasts, dose response, cell-based, RAS-independent, luminescence (AID 1935); type: functional; details: Homo sapiens;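 also: BJ fibroblasts immortalized with TERT plus LT and ST oncogenes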
[3] = tested on: BJ; assay: cytotoxicity toward BJ-TERT fibroblasts, dose response, cell-based, RAS-independent, luminescence (AID 1933); type: functional; details: Homo sapiens
[4] = cytotoxicity toward DRD oncogenic fibroblasts, dose response, cell-based, non-viral oncogenic, luminescence (AID 1934); type: functional; details: Homo sapiens
[5] = tested on: Vero; assay: cells; type: functional, Chlorocebus sabaeus; details: Chlorocebus sabaeus, Vero
[6] = tested on: Streptococcus sp. 'group A'; assay: growth inhibition of control SK(-) GAS strain, dose response, counter-screen for streptokinase expression inhibitor project, luminescence, kanamycin, BacTiterGlo, confirmation (AID 1900); type: functional, organism-based
[7] = Luminescence Cell-Based Dose Retest to Confirm Inhibitors of Cancer Stem Cells. [Related pubchem assays (depositor defined):AID2717, AID2721]; type: functional; details: Homo sapiens
[8] = molecular target: T1, Calpain-2 catalytic subunit (Sus scrofa, UniProt P43367); assay: pig calpain II inhibitor potency, dose response, biochemical, fluorogenic peptide substrate (AID 1420); type: functional
T1 sequence (P43367 whole entry): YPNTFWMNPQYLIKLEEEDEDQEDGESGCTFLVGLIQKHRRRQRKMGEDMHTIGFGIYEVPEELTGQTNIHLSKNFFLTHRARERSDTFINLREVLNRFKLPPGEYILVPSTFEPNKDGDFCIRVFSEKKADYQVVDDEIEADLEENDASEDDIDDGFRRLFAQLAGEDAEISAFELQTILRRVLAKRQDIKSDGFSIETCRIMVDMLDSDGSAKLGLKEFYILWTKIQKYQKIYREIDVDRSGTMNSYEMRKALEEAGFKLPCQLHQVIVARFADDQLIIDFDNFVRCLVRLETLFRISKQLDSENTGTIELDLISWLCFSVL

[9] = tested on: Streptococcus; assay: Group A Streptococcus viability loss, dose response, counter-screen for streptokinase expression inhibitor project, luminescence, BacTiterGlo (AID 1915); type: functional, organism-based;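 also: potency for reduction of bacterial viability or growth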
[10] = molecular target: T2, Streptokinase A (Streptococcus pyogenes serotype M1, UniProt P10520); assay: S. pyogenes streptokinase expression inhibitors, potency, dose response, plasminogen activation absorbance, OD405 (AID 1914); type: functional, Streptococcus pyogenes M1 GAS;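 also: secreted streptokinase activity via plasminogen activation per viability signal from cell pellet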
T2 sequence (P10520 whole entry): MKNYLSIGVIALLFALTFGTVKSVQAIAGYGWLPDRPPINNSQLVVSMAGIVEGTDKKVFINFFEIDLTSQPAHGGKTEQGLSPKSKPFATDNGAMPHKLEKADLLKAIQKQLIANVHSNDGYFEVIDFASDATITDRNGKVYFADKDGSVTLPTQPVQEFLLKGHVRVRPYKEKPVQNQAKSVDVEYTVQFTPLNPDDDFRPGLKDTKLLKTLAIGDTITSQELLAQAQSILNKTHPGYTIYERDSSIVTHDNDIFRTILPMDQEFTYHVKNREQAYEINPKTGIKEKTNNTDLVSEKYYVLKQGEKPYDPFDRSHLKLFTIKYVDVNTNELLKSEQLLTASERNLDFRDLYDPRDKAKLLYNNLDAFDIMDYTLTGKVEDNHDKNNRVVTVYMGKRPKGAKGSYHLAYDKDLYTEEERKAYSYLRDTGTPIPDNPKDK

[11] = molecular target: T3, Cytochrome P450 3A4 (Homo sapiens, UniProt P08684); details: Potency
[12] = molecular target: T3, Cytochrome P450 3A4
[13] = molecular target: Cytochrome P450 2C9 (Homo sapiens, UniProt P11712)
[14] = molecular target: T4, Short transient receptor potential channel 4 (Mus musculus, UniProt Q9QUQ5); assay: mouse TRPC4 channel inhibitors, dose response, cell-based, HEK293 TRPC4/mu-opioid, Fluo-4 calcium (AID 434942); type: functional;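 also: potency of inhibitors blocking the TRPC4 calcium response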
T4 sequence (Q9QUQ5 whole entry): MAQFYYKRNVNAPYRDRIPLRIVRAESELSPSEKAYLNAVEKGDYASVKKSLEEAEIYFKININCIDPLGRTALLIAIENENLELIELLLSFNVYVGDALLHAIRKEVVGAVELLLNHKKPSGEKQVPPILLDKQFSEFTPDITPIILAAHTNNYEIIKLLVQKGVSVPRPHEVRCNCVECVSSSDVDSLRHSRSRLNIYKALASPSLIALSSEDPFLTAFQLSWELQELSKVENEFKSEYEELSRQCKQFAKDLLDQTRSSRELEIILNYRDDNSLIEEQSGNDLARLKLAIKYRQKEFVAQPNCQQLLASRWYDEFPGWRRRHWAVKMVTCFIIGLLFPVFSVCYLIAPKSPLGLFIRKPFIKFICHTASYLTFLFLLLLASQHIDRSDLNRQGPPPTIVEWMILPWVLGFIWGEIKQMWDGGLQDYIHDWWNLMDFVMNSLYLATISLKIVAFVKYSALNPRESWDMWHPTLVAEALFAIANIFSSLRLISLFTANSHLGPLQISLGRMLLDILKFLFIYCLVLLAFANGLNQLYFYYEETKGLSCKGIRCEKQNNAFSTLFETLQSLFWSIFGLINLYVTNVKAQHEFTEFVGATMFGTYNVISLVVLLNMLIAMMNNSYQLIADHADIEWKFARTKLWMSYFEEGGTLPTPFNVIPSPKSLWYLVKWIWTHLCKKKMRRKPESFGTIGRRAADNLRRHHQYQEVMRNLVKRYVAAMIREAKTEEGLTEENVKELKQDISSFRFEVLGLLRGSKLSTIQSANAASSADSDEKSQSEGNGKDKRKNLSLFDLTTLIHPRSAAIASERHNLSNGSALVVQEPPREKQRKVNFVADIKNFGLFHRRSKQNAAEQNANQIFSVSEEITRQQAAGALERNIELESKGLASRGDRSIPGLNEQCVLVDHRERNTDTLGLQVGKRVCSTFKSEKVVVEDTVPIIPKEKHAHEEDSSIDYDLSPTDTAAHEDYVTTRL

[15] = HEp-2 cell cytotoxicity, dose response, cytotoxicity control for RSV inhibitor project, HTS (AID 2410); type: functional; details: human respiratory syncytial virus
[16] = tested on: H9c2; assay: cells; type: functional, cell-based; details: Rattus norvegicus, H9c2, Myocardium;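 also: confirmatory concentration-response retest of ultra-high-throughput screening hits for modulation of myocardial damage; cell death induced by hydrogen peroxide oxidative stress; compound pretreatment for 60 min then peroxide exposure for 2 h; potency is for protecting the cells against peroxide damage rather than for killing them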
[17] = molecular target: Disintegrin and metalloproteinase domain-containing protein 17 (Homo sapiens, UniProt P78536); assay: ADAM17 protease inhibitors, dose response, counter-screen for ADAM10 exosite inhibitor project, biochemical, quenched FRET substrate (AID 743253)
[18] = molecular target: Induced myeloid leukemia cell differentiation protein Mcl-1 (Homo sapiens, UniProt Q07820); type: functional
Induced myeloid leukemia cell differentiation protein Mcl-1, sequence (Q07820 whole entry): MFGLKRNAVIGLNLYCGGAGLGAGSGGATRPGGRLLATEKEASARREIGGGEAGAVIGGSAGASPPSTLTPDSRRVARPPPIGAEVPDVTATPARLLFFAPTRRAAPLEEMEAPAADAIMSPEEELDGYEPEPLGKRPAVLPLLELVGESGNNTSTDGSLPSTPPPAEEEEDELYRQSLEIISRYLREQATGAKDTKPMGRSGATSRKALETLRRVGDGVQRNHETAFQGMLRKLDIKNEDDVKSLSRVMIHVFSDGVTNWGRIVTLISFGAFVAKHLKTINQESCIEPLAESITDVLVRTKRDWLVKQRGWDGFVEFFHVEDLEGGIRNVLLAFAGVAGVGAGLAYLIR

T3 sequence (P08684 whole entry): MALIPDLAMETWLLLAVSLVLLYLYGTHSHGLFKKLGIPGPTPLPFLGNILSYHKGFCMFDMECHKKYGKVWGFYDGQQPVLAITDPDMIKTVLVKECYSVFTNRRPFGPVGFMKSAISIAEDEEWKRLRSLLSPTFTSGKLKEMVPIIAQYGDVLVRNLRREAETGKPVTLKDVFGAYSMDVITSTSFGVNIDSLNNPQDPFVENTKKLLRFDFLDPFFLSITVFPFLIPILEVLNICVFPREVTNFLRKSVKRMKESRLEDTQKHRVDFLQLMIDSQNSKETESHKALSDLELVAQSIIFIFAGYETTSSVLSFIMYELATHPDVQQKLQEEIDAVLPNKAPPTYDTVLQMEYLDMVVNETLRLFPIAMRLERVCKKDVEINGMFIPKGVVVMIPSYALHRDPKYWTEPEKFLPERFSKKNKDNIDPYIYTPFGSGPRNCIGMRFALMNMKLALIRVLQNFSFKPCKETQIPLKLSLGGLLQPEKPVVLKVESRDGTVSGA
Disintegrin and metalloproteinase domain-containing protein 17, sequence (P78536 whole entry, the tested form may be a part): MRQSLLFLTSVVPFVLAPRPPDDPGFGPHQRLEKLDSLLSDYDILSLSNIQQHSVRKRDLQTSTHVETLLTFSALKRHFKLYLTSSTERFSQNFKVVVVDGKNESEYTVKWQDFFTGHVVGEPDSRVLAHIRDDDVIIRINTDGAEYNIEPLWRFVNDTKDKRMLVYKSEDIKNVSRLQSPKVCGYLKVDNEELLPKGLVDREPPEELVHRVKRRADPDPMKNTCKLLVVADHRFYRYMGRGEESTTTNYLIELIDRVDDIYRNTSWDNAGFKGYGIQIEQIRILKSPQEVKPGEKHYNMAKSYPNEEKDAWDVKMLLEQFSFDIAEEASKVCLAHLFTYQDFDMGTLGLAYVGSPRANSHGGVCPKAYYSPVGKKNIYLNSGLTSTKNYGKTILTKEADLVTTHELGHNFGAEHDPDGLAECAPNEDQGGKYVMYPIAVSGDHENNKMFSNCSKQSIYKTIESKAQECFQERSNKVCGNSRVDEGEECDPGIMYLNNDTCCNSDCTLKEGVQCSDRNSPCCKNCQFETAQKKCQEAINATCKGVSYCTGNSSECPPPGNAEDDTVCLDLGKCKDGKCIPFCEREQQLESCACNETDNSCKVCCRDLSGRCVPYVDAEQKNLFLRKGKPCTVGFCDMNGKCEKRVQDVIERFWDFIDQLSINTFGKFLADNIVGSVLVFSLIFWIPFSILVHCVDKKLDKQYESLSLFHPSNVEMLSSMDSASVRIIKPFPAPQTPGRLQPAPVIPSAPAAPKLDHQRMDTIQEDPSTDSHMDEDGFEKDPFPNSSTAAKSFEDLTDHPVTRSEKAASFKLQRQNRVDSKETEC
Cytochrome P450 2C9, sequence (P11712 whole entry): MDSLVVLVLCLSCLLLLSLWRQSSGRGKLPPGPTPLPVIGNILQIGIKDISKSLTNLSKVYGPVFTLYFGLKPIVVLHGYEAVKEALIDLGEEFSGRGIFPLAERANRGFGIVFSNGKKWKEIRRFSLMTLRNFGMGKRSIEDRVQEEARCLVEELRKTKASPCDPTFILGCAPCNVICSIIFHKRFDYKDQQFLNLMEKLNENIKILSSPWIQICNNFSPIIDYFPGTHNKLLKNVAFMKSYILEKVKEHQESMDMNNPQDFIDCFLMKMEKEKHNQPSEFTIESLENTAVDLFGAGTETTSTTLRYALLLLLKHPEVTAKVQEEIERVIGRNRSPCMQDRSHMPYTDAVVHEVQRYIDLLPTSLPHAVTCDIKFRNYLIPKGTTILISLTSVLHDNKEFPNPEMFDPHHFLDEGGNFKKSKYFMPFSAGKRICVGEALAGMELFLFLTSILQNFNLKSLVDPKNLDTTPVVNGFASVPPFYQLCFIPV

For `COc1cc([C@@H]2c3cc4c(cc3[C@@H](NC3CCN(Cc5ccccc5)CC3)[C@H]3COC(=O)[C@H]23)OCO4)cc(OC)c1O`, the EC50 [1] was 0.554 µM (active), the EC50 [2] was 0.297 µM (active) and the EC50 [3] was 1.33 µM (active). For the same compound, the EC50 [4] was 2.38 µM (active).
For `O=C(CC1C(=O)NCCN1C(=O)Nc1ccc(C(F)(F)F)cc1)Nc1ccc(F)cc1` (stereo not drawn), the CC50 [5] was > 25 µM (active).
In the case of `Cc1ccc(NC2=NCC(Cc3ccc(Br)cc3)S2)cc1` (stereo not drawn), the EC50 [6] is reported as 6.42 µM (active), the AC50 [7] is reported as 6.43 µM (active) and the IC50 [8] is reported as 5.89 µM (not active). The EC50 [9] was 10.4 µM (active) and the EC50 [10] was > 150 µM (not active).
With `CC(=O)N1CC=CC1(C)C(=O)O` (stereo not drawn) the AC50 [11] was 20 µM (inconclusive).
In the case of `CCOC(=O)c1sc(=S)n(-c2cccc(C(F)(F)F)c2)c1SC`, the AC50 [12] is reported as “inconclusive” and the AC50 [13] is reported as 1.58 µM (inconclusive).
In the case of `CCC1=C2CC[C@H]3C(=O)NC(=O)[C@H]3[C@H]2[C@@]2(Cc3ccccc3)/C(=N/CC(=O)OC)OC(=O)N2C1=O`, the AC50 [11] is reported as 15.8 µM (inconclusive).
For `C=CCn1cnc2scc(-c3ccc(CC)cc3)c2c1=O`, the EC50 [14] was 5.96 µM (active).
With `Cn1c(=O)c(-c2ccc(Cl)cc2)nc2cnc(Oc3ccccc3)nc21` the AC50 [12] was “inconclusive”.
For `O=C(CSc1nnnn1-c1ccc2c(c1)OCCO2)OC1CCCCC1`, the IC50 [8] was 10.3 µM (not active).
For `CCOC(=O)c1c(N)sc(C(O)(C(F)(F)F)C(F)(F)F)c1-c1ccc(Cl)cc1`, the EC50 [6] was 1.96 µM (active), the IC50 [8] was 13.3 µM (not active) and the EC50 [9] was 10.1 µM (active). The EC50 [10] was 6.86 µM (active) and the CC50 [15] was 11.4 µM (active).
In the case of `O=C1OCCN1C(=O)[C@H]1[C@H](c2ccc([N+](=O)[O-])cc2)C(c2cccc(Cl)c2)=NN1c1ccc(Br)cc1`, the IC50 [16] is reported as > 79 µM (inactive) and the IC50 [17] is reported as > 69.5 µM (inactive).
With `CCCCc1nc(SCCOC)c2c(=O)n(C)c(=O)n(C)c2n1` the EC50 [14] was 1.5 µM (active).
In the case of `CC(C)CCC(CCN1CCCC1)c1ccc2c(c1)OCO2` (stereo not drawn), the IC50 [18] is reported as 6.38 µM (not active).
With `COC1CC(C)C(OC)c2cc(O)cc(c2O)NC(=O)C(C)=CC=CC(C)C(OC(N)=O)C(C)=CC(C)C1OC` (stereo not drawn) the CC50 [5] was 12.6 µM (active).
For `Oc1c(Cl)cc(Cl)cc1/C=C/c1ccc2cccc(O)c2n1`, the IC50 [18] was 6.97 µM (not active).
